Data from patent US20250049806A1, “PHARMACEUTICAL COMPOSITION FOR PROVIDING TREATMENT FOR OR PREVENTING ALPORT SYNDROME” (UBE Corporation, priority 2021, published 2025).

Assay: Transcellular transport test using Caco2 cell
Assay type: in vitro ADME
Conditions: human, Caco-2, apical-to-basolateral (A-to-B), pH=7.4, 10 µM compound
Procedure: Caco2 cells (purchased from ATCC) were cultured in DMEM medium (Thermo Fisher Scientific, Inc., 11965) containing 10% FBS (Thermo Fisher Scientific, Inc., 10082) and 1% penicillin/streptomycin/amphotericin B (Thermo Fisher Scientific, Inc., 15240). A transcellular transport test was carried out in accordance with MultiScreen Caco2 Drug Transport Assembly in a 96-well system (Application Note AN1727EN, MultiScreen Caco-2 Assay System, Merck) by partially modifying it. The Caco2 cells were inoculated at a cell density of 4×10^4 cells/well onto a micropore polycarbonate insert of a 96-well plate (Merck, Millcell-96 culture insert plate 0.4 μm pore size, well membrane area=0.11 cm^2, PSHT004S5) and cultured for 20 to 22 days, and the resulting monolayer was used in the transcellular transport test. The medium of the inoculated cells was replaced with a fresh one every 3 to 4 days.
Apical-to-basolateral (A-to-B) transport in the Caco2 cell monolayer membrane was performed by using HBSS (Thermo Fisher Scientific, Inc., 14025) medium (pH=7.4) containing 20 mM HEPES (Thermo Fisher Scientific, Inc., 15630), and adding HEPES-containing HBSS medium containing 10 µM compound (a 10 mM solution of the compound in DMSO was added at a 1000-fold dilution; final DMSO concentration: 0.1%) at 75 μL/well to the apical side and HEPES-containing HBSS medium supplemented with no compound at 250 μL/well to the basolateral side, followed by culture at 37° C. for 90 minutes. After culture, a 100 μL aliquot was collected from the basolateral side, and the concentration of a permeated compound was measured by LC-MS/MS under measurement conditions mentioned later. Papp (apparent permeability; cm/sec) was calculated from the determined concentration. Papp was determined according to the expression given below by calculating the slope (dA/dt; nmol/sec) of a straight line drawn between two points 0 minutes and zero amount of the compound in a graph plotted with an assay time (90 min) on the abscissa against the amount of the compound in the solution on the permeated side on the ordinate. As for an assay concentration, the concentration in the compound in the HEPES-containing HBSS medium containing the added compound was measured by UV-HPLC under measurement conditions mentioned later.
C0: assay concentration, S: plate membrane area=0.11 cm^2
• LC: LC20 or LC30 HPLC system manufactured by Shimadzu Corp. • Column: Phenomenex Kinetex C18 (50 mm×2.1 mm, 2.6 μm) • Column temperature: 40° C. • Flow rate: 0.3 mL/min • Mobile phase A: 0.1% aqueous formic acid solution • Mobile phase B: 0.1% formic acid, 50% acetonitrile/methanol mixed solution • Gradient: 0-2 min; A/B=90/10 to 10/90, 2-3 min; A/B=10/90, 3-3.01 min; A/B=10/90 to 90/10 • MS: Q-Trap3200 manufactured by AB Sciex Pte. Ltd. • Ionization: ESI • Mode: Positive
• LC: LC20 or LC30 HPLC system manufactured by Shimadzu Corp. • Column: Phenomenex Kinetex C18 (100 mm×2.1 mm, 2.6 μm) • Column temperature: 40° C. • Flow rate: 0.25 mL/min • Mobile phase A: 0.1% aqueous formic acid solution • Mobile phase B: 0.1% formic acid, 50% acetonitrile/methanol mixed solution • Gradient: 0-3 min; A/B=90/10, 3-11 min; A/B=90/10 to 5/95, 11-15 min; A/B=5/95, 15-15.1 min; A/B=5/95 to 90/10 • UV detector: photodiode array detector
A: Papp>1×10^−6 (cm/sec), B: 1×10^−6 (cm/sec)≥Papp>5×10^−7 (cm/sec), C: 5×10^−7 (cm/sec)≥Papp>1×10^−7 (cm/sec), or D: Papp≤1×10^−7 (cm/sec).

Row | SMILES | Papp A→B at 90 min, 10 µM [×10⁻⁶ cm/s]
1 | O=C(O)C[C@H](NC(=O)CNC(=O)c1cc(NC2=NCC(F)CN2)c2cn[nH]c2c1)c1cc(C(F)(F)F)cc(C(F)(F)F)c1 (stereo partly drawn) [7-(b), (3S)-3-(3,5-bis(trifluoromethyl)phenyl)-3-(2-(4-((5-fluoro-1,4,5,6-tetrahydropyrimidin-2-yl)amino)-1H-indazole-6-carboxamido)acetamido)propanoic acid] | 0.5 to 1
2 | O=C(O)C[C@H](NC(=O)CNC(=O)c1cc(NC2=NCC(F)CN2)c2c(F)n[nH]c2c1)c1cc(Cl)cc(C(F)(F)F)c1 (stereo partly drawn) [48-(b), (3S)-3-(3-chloro-5-(trifluoromethyl)phenyl)-3-(2-(3-fluoro-4-((5-fluoro-1,4,5,6-tetrahydropyrimidin-2-yl)amino)-1H-indazole-6-carboxamido)acetamido)propanoic acid] | > 1
3 | O=C(O)C[C@H](NC(=O)CNC(=O)c1cc(NC2=NCC(F)CN2)c2cn[nH]c2c1)c1cc(Cl)cc(I)c1 (stereo partly drawn) [21-(b), (3S)-3-(3-chloro-5-iodophenyl)-3-(2-(4-((5-fluoro-1,4,5,6-tetrahydropyrimidin-2-yl)amino)-1H-indazole-6-carboxamido)acetamido)propanoic acid] | > 1
4 | O=C(O)C[C@H](NC(=O)CNC(=O)c1cc(NC2=NCC(F)CN2)c2cn[nH]c2c1)c1cc(Br)cc(I)c1 (stereo partly drawn) [20-(b), (3S)-3-(3-bromo-5-iodophenyl)-3-(2-(4-((5-fluoro-1,4,5,6-tetrahydropyrimidin-2-yl)amino)-1H-indazole-6-carboxamido)acetamido)propanoic acid] | > 1
5 | O=C(O)C[C@H](NC(=O)CNC(=O)c1cc(NC2=NCC(F)CN2)c2cn[nH]c2c1)c1cc(OC(F)F)cc(-n2cccn2)c1 (stereo partly drawn) [29-(b), (3S)-3-(3-(difluoromethoxy)-5-(1H-pyrazol-1-yl)phenyl)-3-(2-(4-((5-fluoro-1,4,5,6-tetrahydropyrimidin-2-yl)amino)-1H-indazole-6-carboxamido)acetamido)propanoic acid] | 0.1 to 0.5
6 | O=C(O)C[C@H](NC(=O)CNC(=O)c1cc(NC2=NCC(F)CN2)c2cn[nH]c2c1)c1cc(I)cc(C(F)(F)F)c1 (stereo partly drawn) [3-(b), (3S)-3-(2-(4-((5-fluoro-1,4,5,6-tetrahydropyrimidin-2-yl)amino)-1H-indazole-6-carboxamido)acetamido)-3-(3-iodo-5-(trifluoromethyl)phenyl)propanoic acid] | > 1
7 | O=C(O)C[C@H](NC(=O)CNC(=O)c1cc(NC2=NCC(F)CN2)cc2[nH]ncc12)c1cccc(C(F)(F)F)c1 (stereo partly drawn) [56-(b), (3S)-3-(2-(6-((5-fluoro-1,4,5,6-tetrahydropyrimidin-2-yl)amino)-1H-indazole-4-carboxamido)acetamido)-3-(3-(trifluoromethyl)phenyl)propanoic acid] | 0.1 to 0.5
8 | COc1cc([C@H](CC(=O)O)NC(=O)CNC(=O)c2cc(NC3=NCC(F)CN3)c3cn[nH]c3c2)cc(C(F)(F)F)c1 (stereo partly drawn) [5-(b), (3S)-3-(2-(4-((5-fluoro-1,4,5,6-tetrahydropyrimidin-2-yl)amino)-1H-indazole-6-carboxamido)acetamido)-3-(3-methoxy-5-(trifluoromethyl)phenyl)propanoic acid] | 0.5 to 1
9 | O=C(O)C[C@H](NC(=O)CNC(=O)c1cc(NC2=NCC(F)CN2)c2c(Cl)n[nH]c2c1)c1cc(Cl)cc(C(F)(F)F)c1 (stereo partly drawn) [49-(b), (3S)-3-(2-(3-chloro-4-((5-fluoro-1,4,5,6-tetrahydropyrimidin-2-yl)amino)-1H-indazole-6-carboxamido)acetamido)-3-(3-chloro-5-(trifluoromethyl)phenyl)propanoic acid] | 0.5 to 1
10 | O=C(O)C[C@H](NC(=O)CNC(=O)c1cc(NC2=NCC(F)CN2)c2cn[nH]c2c1)c1cc(C(F)(F)F)ccc1Cl (stereo partly drawn) [12-(b), (3S)-3-(2-chloro-5-(trifluoromethyl)phenyl)-3-(2-(4-((5-fluoro-1,4,5,6-tetrahydropyrimidin-2-yl)amino)-1H-indazole-6-carboxamido)acetamido)propanoic acid] | > 1
11 | O=C(O)C[C@H](NC(=O)CNC(=O)c1cc(NC2=NCC(F)CN2)cc2[nH]ncc12)c1ccc(F)c(C(F)(F)F)c1 (stereo partly drawn) [55-(b), (3S)-3-(2-(6-((5-fluoro-1,4,5,6-tetrahydropyrimidin-2-yl)amino)-1H-indazole-4-carboxamido)acetamido)-3-(4-fluoro-3-(trifluoromethyl)phenyl)propanoic acid] | 0.1 to 0.5
12 | O=C(O)C[C@H](NC(=O)CNC(=O)c1cc(NC2=NCC(F)CN2)c2cn[nH]c2c1)c1cc(Cl)ccc1F (stereo partly drawn) [22-(b), (3S)-3-(5-chloro-2-fluorophenyl)-3-(2-(4-((5-fluoro-1,4,5,6-tetrahydropyrimidin-2-yl)amino)-1H-indazole-6-carboxamido)acetamido)propanoic acid] | > 1
13 | O=C(O)C[C@H](NC(=O)CNC(=O)c1cc(NC2=NCC(F)CN2)cc2[nH]ncc12)c1cc(Br)cc(C(F)(F)F)c1 (stereo partly drawn) [53-(b), (3S)-3-(3-bromo-5-(trifluoromethyl)phenyl)-3-(2-(6-((5-fluoro-1,4,5,6-tetrahydropyrimidin-2-yl)amino)-1H-indazole-4-carboxamido)acetamido)propanoic acid] | 0.1 to 0.5

Results, then the molecule that gave them:

Row | Papp A→B at 90 min, 10 µM [×10⁻⁶ cm/s] | SMILES
14 | > 1 | O=C(O)C[C@H](NC(=O)CNC(=O)c1cc(NC2=NCC(F)CN2)c2cn[nH]c2c1)c1cc(Cl)c(F)c(C(F)(F)F)c1 (stereo partly drawn) [15-(b), (3S)-3-(3-chloro-4-fluoro-5-(trifluoromethyl)phenyl)-3-(2-(4-((5-fluoro-1,4,5,6-tetrahydropyrimidin-2-yl)amino)-1H-indazole-6-carboxamido)acetamido)propanoic acid]
15 | > 1 | O=C(O)C[C@H](NC(=O)CNC(=O)c1cc(NC2=NCC(F)CN2)c2cn[nH]c2c1)c1ccc(F)c(C(F)(F)F)c1 (stereo partly drawn) [13-(b), (3S)-3-(2-(4-((5-fluoro-1,4,5,6-tetrahydropyrimidin-2-yl)amino)-1H-indazole-6-carboxamido)acetamido)-3-(4-fluoro-3-(trifluoromethyl)phenyl)propanoic acid]
16 | > 1 | Cc1ccc([C@H](CC(=O)O)NC(=O)CNC(=O)c2cc(NC3=NCC(F)CN3)c3cn[nH]c3c2)cc1C(F)(F)F (stereo partly drawn) [14-(b), (3S)-3-(2-(4-((5-fluoro-1,4,5,6-tetrahydropyrimidin-2-yl)amino)-1H-indazole-6-carboxamido)acetamido)-3-(4-methyl-3-(trifluoromethyl)phenyl)propanoic acid]
17 | > 1 | COc1ccc([C@H](CC(=O)O)NC(=O)CNC(=O)c2cc(NC3=NCC(F)CN3)c3cn[nH]c3c2)cc1Br (stereo partly drawn) [16-(b), (3S)-3-(3-bromo-4-methoxyphenyl)-3-(2-(4-((5-fluoro-1,4,5,6-tetrahydropyrimidin-2-yl)amino)-1H-indazole-6-carboxamido)acetamido)propanoic acid]
18 | > 1 | O=C(O)C[C@H](NC(=O)CNC(=O)c1cc(NC2=NCC(F)CN2)c2cn[nH]c2c1)c1ccc(F)c(OC(F)(F)F)c1 (stereo partly drawn) [34-(b), (3S)-3-(2-(4-((5-fluoro-1,4,5,6-tetrahydropyrimidin-2-yl)amino)-1H-indazole-6-carboxamido)acetamido)-3-(4-fluoro-3-(trifluoromethoxy)phenyl)propanoic acid]
19 | > 1 | O=C(O)C[C@H](NC(=O)CNC(=O)c1cc(NC2=NCC(F)CN2)c2cn[nH]c2c1)c1ccc(F)c(OC(F)F)c1 (stereo partly drawn) [27-(b), (3S)-3-(3-(difluoromethoxy)-4-fluorophenyl)-3-(2-(4-((5-fluoro-1,4,5,6-tetrahydropyrimidin-2-yl)amino)-1H-indazole-6-carboxamido)acetamido)propanoic acid]
20 | > 1 | O=C(O)C[C@H](NC(=O)CNC(=O)c1cc(NC2=NCC(F)CN2)c2cn[nH]c2c1)c1cc(Cl)cc(C(F)(F)F)c1 (some centres unmarked) [1-(b)]
